Laboratory results reported in paper PMC11303563 (Communications Medicine, 2024).
Values joined by “and” are separate entries in the source; they are usually repeats but may differ in a detail not shown here. Identical values can stand only once.

Columns and labels:
[1] = In vitro blood-brain barrier permeability assay (BBB kit RBT-24H); assay type: in vitro ADME, rat; conditions: rat, 10 μM on luminal side, read-out: apparent permeability (Papp)
Experimental: Therefore, we tested BBB transparency in vitro using the BBB kit RBT-24H (PharmaCo-Cell)[35]. […] Blood-brain barrier permeability assay The blood-brain barrier (BBB) transparency of TH analogs was assessed in vitro using RBT-24H (PharmaCo-Cell)[5] according to the manufacturer 's protocol. […] After 30 min, the assay buffer in the wells mimicking the abluminal side was collected, and the concentration of the compounds was measured using liquid chromatography-mass spectrometry (LC-MS). […] These tips were preconditioned with 20 μL of acetonitrile and 20 μL of 0.1% TFA in purified water. 100 μL of the samples were loaded onto the preconditioned tips, washed with 200 μL of DW, and then eluted with 10 μL of acetonitrile. Triazine (1% vol/vol) was added to the eluent as an internal standard. […] 3 μm; Imtakt, Kyoto, Japan). All the experiments were performed using an Ultimate 3000 UHPLC system coupled with a Q Exactive Plus Orbitrap mass spectrometer (Thermo Fisher Scientific). […] Data were shown as mean ± standard deviation (n=3).

[2] = tested on: high-fat diet (HFD)-induced obesity model mice; assay: Serum lipid analysis (total cholesterol, triglycerides) in HFD mice; assay type: in vivo, C57BL/6J mice; parameters: Serum TC (Fig. 4a), individual mouse values / Serum TG (Fig. 4b), individual mouse values / Serum TC (Fig. 4a), Mean Diff. ND vs. treatment (Tukey) / Serum TC (Fig. 4a), Mean Diff. Vehicle vs. treatment (Tukey) / Serum TC (Fig. 4a), group mean (Mean 2) / Mean Diff., ND vs. treated (Fig. 4b) / Mean Diff., Vehicle vs. treated (Fig. 4b) / Mean (Fig. 4b): unit not given here; conditions: for Serum TC (Fig. 4a), group mean (Mean 2) / Mean (Fig. 4b): n=10; for Serum TC (Fig. 4a), Mean Diff. ND vs. treatment (Tukey): ND minus treated; for Serum TC (Fig. 4a), Mean Diff. Vehicle vs. treatment (Tukey): Vehicle minus treated; for Mean Diff., ND vs. treated (Fig. 4b) / Mean Diff., Vehicle vs. treated (Fig. 4b): Tukey's multiple comparisons test; for Mean (Fig. 4b): group mean
Experimental: Fig. 4 Effects of TH analogs on the accumulation of lipids in mice. […] After 3 weeks of injection, serum and liver tissues were collected, and the amount of serum cholesterol (a), serum triglycerides (b), liver cholesterol (c), liver triglycerides (d), and liver total lipids (e) were measured.

[3] = tested on: THR-regulated genes and lipid metabolism-related genes in the liver
[4] = tested on: high-fat diet (HFD)-induced obesity model mice; assay: Oil Red O staining of the liver section; assay type: in vivo, C57BL/6J mice; conditions: i.p. 1 µmol/kg·day, 3 weeks
Experimental: 20 µm sections were prepared from frozen liver tissues using Cryostat (CM3050 S, Leica). Sections were affixed to silane-coated glass slides, dried at room temperature, and stored at −80 °C until use. Before staining, sections were fixed with 1% PFA/1 × PBS, pH 7.4 (Gibco) for 5 min, immersed in 1 × PBS for 5 min, distilled water for 5 min, and 60% 2-propanol solution for 1 min. Oil Red O staining solution was prepared by mixing 0.36 g of Oil Red O (Sigma) with 120 mL of 2-propanol and 80 mL of distilled water, allowing the solution to stand at room temperature for 1 h, then filtering the solution and leaving it overnight at 37 °C. Sections were immersed in the Oil Red O staining solution at 37 °C for 15 min, rinsed in 60% 2-propanol for 1 min, and in distilled water for 1 min. Sections were counterstained with Meyer’s hematoxylin. […] The area of red-stained fat droplets was quantified using Image J (National Institutes of Health), and the percentage of the stained area in the total image area was calculated. Nine different parts in three consecutive sections per mouse were analyzed.
Fig. 5 Oil Red O staining of the liver section of mice treated with TH analogs. […] After three weeks of injection, liver tissues were collected, frozen sections were prepared, and subjected to Oil Red O staining (a). Stained areas were quantified and normalized to the total image area. […]

[5] = tested on: high-fat diet (HFD)-induced obesity model mice; assay: Body weight of high-fat diet-induced obesity model mice; assay type: in vivo, C57BL/6J mice; parameters: Body weight, Mean Diff. ND vs. treated: unit not given here; conditions: for Body weight, 95.00% CI of diff. ND vs. treated / Body weight, Mean Diff. ND vs. treated: ND group as comparator; for Body weight, 95.00% CI of diff. ND vs. treated / Body weight, Mean Diff. ND vs. treated / Body weight, 95.00% CI of diff. Vehicle vs. treated / Body weight, Mean Diff. Vehicle vs. treated: Tukey's multiple comparisons test; for Body weight, Mean Diff. Vehicle vs. treated / Body weight, group mean (Fig. 3a) / Body weight, individual mice (Fig. 3a): in g (unit assumed); for Body weight, group mean (Fig. 3a): n 10
Experimental: The injection was given 6 h after light on. Food consumption and body weights were measured weekly. Food and water were provided to the animals ad libitum. The animals were treated according to the guidelines of Nagoya University, and all experimental procedures were approved by the Animal Experiment Committee of Nagoya University (A210715-003).
(§1) Epididymal adipose tissue was weighed.
(§2) Fig. 3 Effects of intraperitoneal injection of TH analogs on body weight and deposition of visceral fat. […] After three weeks of injection, body weight (a), and weight of the epididymal adipose tissue (b) were measured.

[6] = Heart weight (cardiac hypertrophy); conditions: for Heart weight, group mean (Mean 2): n 10, Vehicle mean 136.7; for heart weight vs vehicle: HFD mice, 3 weeks
Experimental: Male 7-week-old C57BL/6J mice were obtained from a local supplier (Nihon SLC, Shizuoka, Japan). The mice were individually housed in cages (Innocage; ORIENTAL GIKEN) at 23 °C with a 12-h-light–dark cycle starting at 08:00 a.m. […] The injection was prepared by dissolving the compounds in 0.5 N NaOH at a concentration of 100 mM, which was then further diluted with saline to a concentration of either 0.05 or 0.5 mM. The volume of the solution injected was determined based on the body weight of the animal, measured once a week, with 0.05 and 0.5 mM solutions injected at 0.1 and 1 µmol/kg day, respectively. Each group consisted of 10 animals, except for the ND (n = 8) and HFD with saline (vehicle, n = 9) groups.
After three weeks of daily injections, the body weights of the mice were measured. […] Subsequently, the animals were euthanized using deep isoflurane anesthesia, and the liver, heart, and epididymal adipose tissues were removed from the body. […] Hearts were weighed and fixed in 4% paraformaldehyde for 48 h in a cassette (Sakura Finetek Japan, Tokyo, Japan).
Heart weight was measured to assess heart toxicity. Data are shown as the mean ± SEM (n = 8–10). Significant differences among groups are indicated by asterisks (*P < 0.05, and ****P < 0.0001, one-way ANOVA with Tukey’s post-hoc test) (b).

[7] = tested on: high-fat diet (HFD)-induced obesity model mice; assay: Weight of epididymal adipose tissue (visceral fat) in HFD mice; assay type: in vivo, C57BL/6J mice; conditions: for Fig. 3b (weight of epididymal adipose tissue), group mean (Mean 2) / Epididymal adipose weight, individual mice (Fig. 3b) / weight of the epididymal adipose tissue vs vehicle: HFD mice; for Fig. 3b (weight of epididymal adipose tissue), group mean (Mean 2): n=10; for Fig. 3b (weight of epididymal adipose tissue), group mean (Mean 2) / Fig. 3b (weight of epididymal adipose tissue), Mean Diff. ND vs. treatment (Tukey) / Fig. 3b (weight of epididymal adipose tissue), Mean Diff. Vehicle vs. treatment (Tukey) / Epididymal adipose weight, individual mice (Fig. 3b): in mg (unit assumed); for Fig. 3b (weight of epididymal adipose tissue), Mean Diff. ND vs. treatment (Tukey): ND minus treated; for Fig. 3b (weight of epididymal adipose tissue), Mean Diff. Vehicle vs. treatment (Tukey): Vehicle minus treated; for weight of the epididymal adipose tissue vs vehicle: 3 weeks
Experimental: as §1, §2

[8] = HFD mice, i.p. 1 µmol/kg day, 3 weeks
[9] = HFD mice, 1 μmol/kg day, RT-qPCR, reference gene Rps18
[10] = liver gene expression, 1µmol dose group vs. Vehicle

O=C(O)Cc1cc(C(F)(F)F)c(Cc2ccc(O)c3ccccc23)c(C(F)(F)F)c1 [ZTA-261]
Papp at 30 min, 10 µM [1]: 7.28 ± 2.55 ×10⁻⁶ cm/s
Serum TC (Fig. 4a), individual mouse values ([2]; 0.1 µmol, HFD mice): 170.917 and 174.042 and 146.958 and 171.875 and 171.042 and 164.292 and 178.75 and 197.208 and 153.333 and 201.333
Serum TG (Fig. 4b), individual mouse values ([2]; 0.1 µmol, HFD mice): 76.25 and 92.083 and 101.25 and 78.417 and 57.583 and 89.25 and 104.25 and 84.25 and 81.75
Serum TC (Fig. 4a), group mean (Mean 2) ([2]; 0.1 µmol, HFD mice): 173
Serum TC (Fig. 4a), Mean Diff. ND vs. treatment (Tukey) ([2]; 0.1 µmol): 6.447
Serum TC (Fig. 4a), Mean Diff. Vehicle vs. treatment (Tukey) ([2]; 0.1 µmol): 77.09
Serum TC (Fig. 4a), individual mouse values ([2]; 1 µmol, HFD mice): 100.083 and 106.125 and 141.958 and 148.125 and 147.292 and 139.708 and 132.5 and 117.5 and 94.583 and 113
Serum TG (Fig. 4b), individual mouse values ([2]; 1 µmol, HFD mice): 52.917 and 53.75 and 90.417 and 88.75 and 67.917 and 87.917 and 73.75 and 69.583 and 82.083 and 85.417
Serum TC (Fig. 4a), group mean (Mean 2) ([2]; 1 µmol, HFD mice): 124.1
Serum TC (Fig. 4a), Mean Diff. ND vs. treatment (Tukey) ([2]; 1 µmol): 55.33
Serum TC (Fig. 4a), Mean Diff. Vehicle vs. treatment (Tukey) ([2]; 1 µmol): 126
Mean Diff., ND vs. treated (Fig. 4b) ([2]; ND minus 0.1 µmol group): 62.42
Mean Diff., ND vs. treated (Fig. 4b) ([2]; ND minus 1 µmol group): 71.52
Mean Diff., Vehicle vs. treated (Fig. 4b) ([2]; Vehicle minus 0.1 µmol group): 31.43
Mean Diff., Vehicle vs. treated (Fig. 4b) ([2]; Vehicle minus 1 µmol group): 40.53
Mean (Fig. 4b) ([2]; 0.1 µmol, HFD mice): 84.35
Mean (Fig. 4b) ([2]; 1 µmol, HFD mice): 75.25
serum triglyceride level vs vehicle [2, 8]: decreased
Cyp7a1 expression in the liver, individual animal values ([3]; 1µmol, one value per animal): 0.6381 and 0.6001 and 0.9755 and 0.7051 and 0.7377 and 0.8699 and 1.225 and 1.875 and 1.688 and 1.407
Dio1 expression in the liver, individual animal values ([3]; 1µmol, one value per animal): 2.348 and 0.8674 and 3.4594 and 3.712 and 3.243 and 4.342 and 3.767 and 2.33 and 3.714 and 5.338
Ldlr expression in the liver, individual animal values ([3]; 1µmol, one value per animal): 0.4288 and 1.672 and 1.891 and 1.348 and 1.361 and 2.264 and 2.662 and 1.059 and 1.183 and 1.422
Me1 expression in the liver, individual animal values ([3]; 1µmol, one value per animal): 2.009 and 0.7713 and 1.636 and 2.32 and 2.026 and 3.023 and 3.213 and 2.688 and 3.436 and 4.664
Pnpla2 expression in the liver, individual animal values ([3]; 1µmol, one value per animal): 1.268 and 0.9327 and 2.591 and 7.772 and 2.012 and 5.634 and 5.017 and 1.649 and 3.705 and 2.077
Srebp1c expression in the liver, individual animal values ([3]; 1µmol, one value per animal): 0.1054 and 0.05247 and 0.1951 and 0.3686 and 0.2695 and 0.5078 and 0.5858 and 0.293 and 0.5057 and 0.124
Thrsp expression in the liver, individual animal values ([3]; 1µmol, one value per animal): 1.26 and 1.164 and 1.998 and 1.521 and 1.182 and 1.374 and 1.7691 and 1.941 and 1.759 and 2.356
liver expression of Cyp7a1 vs vehicle [3, 9]: not significantly different
liver expression of Dio1 vs vehicle [3, 9]: significantly upregulated
liver expression of Ldlr vs vehicle [3, 9]: not significantly different
liver expression of Me1 vs vehicle [3, 9]: significantly upregulated
liver expression of Pnpla2 vs vehicle [3, 9]: significantly higher
liver expression of Srebp1c vs vehicle [3, 9]: Although not statistically significant, the ZTA-261-treated group showed decreased Srebp1c expression
liver expression of Thrsp vs vehicle [3, 9]: increased
Pnpla2, Dunn's multiple comparisons test, Mean rank diff. (Vehicle vs. compound) [3, 10]: -17.5
Srebp1c, Dunn's multiple comparisons test, Mean rank diff. (Vehicle vs. compound) [3, 10]: 13.17
Pnpla2, Mean rank of treatment group (Mean rank 2) ([3]; liver gene expression, 1µmol dose group, Vehicle mean rank 8): 25.5
Srebp1c, Mean rank of treatment group (Mean rank 2) ([3]; liver gene expression, 1µmol dose group, Vehicle mean rank […]): 20.5
Oil Red O-positive area in liver sections vs vehicle [4]: significantly reduced
Body weight, 95.00% CI of diff. ND vs. treated ([5]; 0.1 µmol dose group): -17.31 to -8.599
Body weight, Mean Diff. ND vs. treated ([5]; 0.1 µmol dose group): -12.95
Body weight, 95.00% CI of diff. Vehicle vs. treated ([5]; 0.1 µmol dose group): -2.779 to 5.659
Body weight, Mean Diff. Vehicle vs. treated ([5]; 0.1 µmol dose group): 1.44
Body weight, 95.00% CI of diff. ND vs. treated ([5]; 1 µmol dose group): -11.31 to -2.596
Body weight, Mean Diff. ND vs. treated ([5]; 1 µmol dose group): -6.951
Body weight, 95.00% CI of diff. Vehicle vs. treated ([5]; 1 µmol dose group): 3.224 to 11.66
Body weight, Mean Diff. Vehicle vs. treated ([5]; 1 µmol dose group): 7.443
Body weight, group mean (Fig. 3a) ([5]; HFD mice, 0.1 µmol dose group): 41.47
Body weight, individual mice (Fig. 3a) ([5]; HFD mice, 0.1 µmol dose group): 40.29 and 36.71 and 35.46 and 47.2 and 43.74 and 41.64 and 46.66 and 44.04 and 36.76 and 42.23
Body weight, group mean (Fig. 3a) ([5]; HFD mice, 1 µmol dose group): 35.47
Body weight, individual mice (Fig. 3a) ([5]; HFD mice, 1 µmol dose group): 32.91 and 31.68 and 37.61 and 39.1 and 35.68 and 36.65 and 37.77 and 35.13 and 35.26
body weight vs vehicle (in words) ([5]; HFD mice, i.p. 0.1 µmol/kg day, 3 weeks): did not significantly reduce body weight
decrease of body weight compared to vehicle [5, 8]: ~ 20%
Heart weight (Fig. 7b), individual animal values ([6]; 0.1 µmol dose group): 120.4 and 125.5 and 128.7 and 142.9 and 126.8 and 139.4 and 134.1 and 147.6 and 135.4 and 150.2
Heart weight, Tukey's multiple comparisons test, Mean Diff. (Vehicle vs. compound) ([6]; 0.1 µmol dose group vs. Vehicle): 1.622
Heart weight, group mean (Mean 2) ([6]; 0.1 µmol dose group): 135.1
Heart weight (Fig. 7b), individual animal values ([6]; 1 µmol dose group): 135 and 135.2 and 126.1 and 150.6 and 150.7 and 152.1 and 152.8 and 145.4 and 154.6 and 138.8
Heart weight, Tukey's multiple comparisons test, Mean Diff. (Vehicle vs. compound) ([6]; 1 µmol dose group vs. Vehicle): -7.408
Heart weight, group mean (Mean 2) ([6]; 1 µmol dose group): 144.1
heart weight vs vehicle ([6]; i.p. 0.1 µmol/kg day): No such effect
heart weight vs vehicle ([6]; i.p. 1 µmol/kg day): No such effect
Fig. 3b (weight of epididymal adipose tissue), group mean (Mean 2) ([7]; 0.1 µmol): 2650
Fig. 3b (weight of epididymal adipose tissue), Mean Diff. ND vs. treatment (Tukey) ([7]; 0.1 µmol): -1966
Fig. 3b (weight of epididymal adipose tissue), Mean Diff. Vehicle vs. treatment (Tukey) ([7]; 0.1 µmol): 208.4
Fig. 3b (weight of epididymal adipose tissue), group mean (Mean 2) ([7]; 1 µmol): 1679
Fig. 3b (weight of epididymal adipose tissue), Mean Diff. ND vs. treatment (Tukey) ([7]; 1 µmol): -996
Fig. 3b (weight of epididymal adipose tissue), Mean Diff. Vehicle vs. treatment (Tukey) ([7]; 1 µmol): 1179
Epididymal adipose weight, individual mice (Fig. 3b) ([7]; 0.1 µmol dose group): 2776.2 and 2045.1 and 1929.4 and 2510.8 and 2876.4 and 3044.5 and 3312.5 and 2871.5 and 2180.4 and 2949.5
Epididymal adipose weight, individual mice (Fig. 3b) ([7]; 1 µmol dose group): 1625 and 1387 and 1309.2 and 1666.6 and 1860.1 and 1033.5 and 2042 and 1824.7 and 1973.2 and 2072
weight of the epididymal adipose tissue vs vehicle ([7]; i.p. 0.1 µmol/kg day): did not show any obvious effect
weight of the epididymal adipose tissue vs vehicle ([7]; i.p. 1 µmol/kg day): decreased significantly
